Data as given in PubChem BioAssay AID256 (DTP/NCI, 2004).
Where “and” joins values, the source holds several entries; their conditions need not be identical. Equal values may be shown once. Toxic doses and inconclusive results are not listed.

Tested on: CD2F1 mice, L1210 leukemia ip, survival T/C
Assay: NCI In Vivo Anticancer Drug Screen. Data for tumor model L1210 Leukemia (intraperitoneal) in CD2F1 (CDF1) mice
Details: endpoint: mean survival time, higher = longer survival
Protocol: The antitumor activity of compounds was measured in mice bearing transplantable tumors. Survival or tumor size were measured and the results are expressed as the measurement made in the treated group (T) divided by the measurement made in the vehicle treated control group (C). The tumor model used in this assay is L1210 Leukemia (intraperitoneal) in CD2F1 (CDF1) mice

[1] = dose: 12.5 mg/kg/injection, schedule: Q01DX009 (ip), vehicle: saline with Tween-80
[2] = dose: 25.0 mg/kg/injection, schedule: Q01DX009 (ip), vehicle: saline with Tween-80
[3] = dose: 50.0 mg/kg/injection, schedule: Q01DX009 (ip), vehicle: saline with Tween-80
[4] = dose: 100.0 mg/kg/injection, schedule: Q04DX003 (ip), vehicle: saline with Tween-80
[5] = dose: 200.0 mg/kg/injection, schedule: Q04DX003 (ip), vehicle: saline with Tween-80
[6] = dose: 100.0 mg/kg/injection, schedule: Q01DX009 (ip), vehicle: saline with Tween-80
[7] = dose: 200.0 mg/kg/injection, schedule: Q01DX009 (ip), vehicle: saline with Tween-80
[8] = dose: 400.0 mg/kg/injection, schedule: Q01DX009 (ip), vehicle: saline with Tween-80
[9] = dose: 100.0 mg/kg/injection, schedule: Q04DX002 (ip), vehicle: saline with Tween-80
[10] = dose: 200.0 mg/kg/injection, schedule: Q04DX002 (ip), vehicle: saline with Tween-80
[11] = dose: 400.0 mg/kg/injection, schedule: Q04DX002 (ip), vehicle: saline with Tween-80
[12] = dose: 100.0 mg/kg/injection, schedule: Q01DX009 (ip), vehicle: Klucel (hydroxypropylcellulose) (HPC)
[13] = dose: 200.0 mg/kg/injection, schedule: Q01DX009 (ip), vehicle: Klucel (hydroxypropylcellulose) (HPC)
[14] = dose: 100.0 mg/kg/injection, schedule: Q01DX001 (ip), vehicle: saline with Tween-80
[15] = dose: 200.0 mg/kg/injection, schedule: Q01DX001 (ip), vehicle: saline with Tween-80
[16] = dose: 400.0 mg/kg/injection, schedule: Q04DX003 (ip), vehicle: saline with Tween-80

CN(C)CCCN=Cc1ccc(O)cc1O.CN(C)CCCN=Cc1ccc(O)cc1O.[Ni+2]
T/C [1]: 94 % of control
T/C [2]: 93 % of control
T/C [3]: 94 % of control

CCOC(=O)c1c(C)nc(C)c(C(=O)OCC)c1-c1ccc(N(C)C)cc1
T/C [4]: 104 % of control
T/C [5]: 98 % of control

CN(C)c1ncnc2c1cnn2C1OC(CO)C(O)C1O (stereo not drawn)
T/C (dose: 12.5 mg/kg/injection, schedule: Q01DX005 (ip), vehicle: water): 93 % of control
T/C (dose: 25.0 mg/kg/injection, schedule: Q01DX005 (ip), vehicle: water): 90 % of control
T/C (dose: 50.0 mg/kg/injection, schedule: Q01DX005 (ip), vehicle: water): 107 % of control
T/C (dose: 100.0 mg/kg/injection, schedule: Q01DX005 (ip), vehicle: water): 100 % of control
T/C (dose: 200.0 mg/kg/injection, schedule: Q01DX005 (ip), vehicle: water): 100 % of control

CCO/N=C(\C)C(N)=O
T/C [6]: 101 % of control
T/C [7]: 108 % of control
T/C [8]: 95 % of control

C[n+]1cccc(NC(=O)c2ccc(NC(=O)c3ccc(C(=O)Nc4ccc(NC(=N)N)cc4)cc3)cc2)c1
T/C (dose: 1.3 mg/kg/injection, schedule: Q01DX009 (ip), vehicle: saline): 173 % of control
T/C (dose: 2.0 mg/kg/injection, schedule: Q01DX009 (ip), vehicle: saline): 307 % of control
T/C (dose: 3.0 mg/kg/injection, schedule: Q01DX009 (ip), vehicle: saline): 259 % of control
T/C (dose: 8.0 mg/kg/injection, schedule: Q01DX009 (ip), vehicle: saline): 115 % of control
T/C (dose: 12.0 mg/kg/injection, schedule: Q01DX009 (ip), vehicle: saline): 112 % of control
T/C (dose: 18.0 mg/kg/injection, schedule: Q01DX009 (ip), vehicle: saline): 97 % of control

CN(C)C(=O)SCCSC(=O)N(C)C
T/C [9]: 106 % of control
T/C [10]: 92 % of control
T/C [11]: 95 % of control

CC(=O)NC(CSCc1c2ccccc2c(C)c2c1ccc1ccccc12)C(=O)O (stereo not drawn)
T/C [3]: 103 % of control
T/C [6]: 95 % of control
T/C [4]: 93 % of control
T/C [7]: 103 % of control
T/C [5]: 90 % of control

O=C(N/N=C/c1ccccc1)c1ccc(Cl)c(Cl)c1
T/C [12]: 105 % of control
T/C [13]: 101 % of control
T/C (dose: 400.0 mg/kg/injection, schedule: Q01DX009 (ip), vehicle: Klucel (hydroxypropylcellulose) (HPC)): 101 % of control

Cc1ccc(S(=O)(=O)OCC(O)C(O)C(O)C(O)COS(=O)(=O)c2ccc(C)cc2)cc1 (stereo not drawn)
T/C (dose: 50.0 mg/kg/injection, schedule: Q01DX001 (ip), vehicle: saline with Tween-80): 96 % of control
T/C [14]: 96 % of control
T/C [15]: 96 % of control

Clc1ccc(CN2COc3c(ccc4cccnc34)C2)cc1Cl
T/C [1]: 95 % of control and 97 % of control
T/C [2]: 92 % of control and 105 % of control
T/C [3]: 94 % of control and 105 % of control
T/C [6]: 103 % of control and 110 % of control
T/C [7]: 95 % of control
T/C [8]: 94 % of control

C=CC(=O)NC(C)(C)CC(C)(C)C
T/C [6]: 105 % of control
T/C [4]: 92 % of control
T/C [5]: 102 % of control
T/C [16]: 96 % of control

c1ccc2c(c1)ccn2CCCCn1ccc2ccccc21
T/C [3]: 101 % of control
T/C [6]: 101 % of control
T/C [7]: 101 % of control

COc1cc(OC)c(NC(=O)OCC2CCCO2)cc1Cl (stereo not drawn)
T/C [3]: 90 % of control
T/C [6]: 97 % of control
T/C [7]: 94 % of control

Fc1c(F)c(F)c(-c2c(F)c(F)c(-c3c(F)c(F)c(-c4c(F)c(F)c(F)c(F)c4F)c(F)c3F)c(F)c2F)c(F)c1F
T/C [6]: 96 % of control
T/C [7]: 88 % of control

Nc1nc(-c2ccccc2)c(Br)c(=O)[nH]1
T/C [4]: 104 % of control
T/C [5]: 96 % of control
T/C [16]: 93 % of control

O=C(O)C1C2C=CC3(O2)C(=O)N(Cc2ccccc2)C(=O)C13 (stereo not drawn)
T/C [9]: 95 % of control
T/C [10]: 103 % of control
T/C [11]: 98 % of control

CC1=C/C(=N\N=C2/C=C(C)CC(C)(C)C2)CC(C)(C)C1
T/C (dose: 100.0 mg/kg/injection, schedule: Q04DX003 (ip), vehicle: Klucel (hydroxypropylcellulose) (HPC)): 93 % of control
T/C (dose: 200.0 mg/kg/injection, schedule: Q04DX003 (ip), vehicle: Klucel (hydroxypropylcellulose) (HPC)): 91 % of control
T/C (dose: 400.0 mg/kg/injection, schedule: Q04DX003 (ip), vehicle: Klucel (hydroxypropylcellulose) (HPC)): 89 % of control

c1ccc(C(=NN=C(c2ccccc2)c2ccccc2)c2ccccc2)cc1
T/C [4]: 97 % of control
T/C [5]: 97 % of control
T/C [16]: 95 % of control
T/C (dose: 800.0 mg/kg/injection, schedule: Q04DX003 (ip), vehicle: saline with Tween-80): 92 % of control

O=C1C2C(C(=O)N1c1ccccc1)C1c3ccccc3C2C2CCCCN21 (stereo not drawn)
T/C (dose: 12.5 mg/kg/injection, schedule: Q04DX003 (ip), vehicle: Klucel (hydroxypropylcellulose) (HPC)): 95 % of control
T/C (dose: 25.0 mg/kg/injection, schedule: Q04DX003 (ip), vehicle: Klucel (hydroxypropylcellulose) (HPC)): 101 % of control
T/C (dose: 50.0 mg/kg/injection, schedule: Q04DX003 (ip), vehicle: Klucel (hydroxypropylcellulose) (HPC)): 93 % of control

COc1ccc(-c2c(C(=O)O)cc(O)c3cc(OC)c(OC)cc23)cc1OC
T/C (dose: 100.0 mg/kg/injection, schedule: Q01DX001 (ip), vehicle: saline): 97 % of control
T/C (dose: 200.0 mg/kg/injection, schedule: Q01DX001 (ip), vehicle: saline): 97 % of control
T/C (dose: 400.0 mg/kg/injection, schedule: Q01DX001 (ip), vehicle: saline): 92 % of control

O=C(O)CCc1[nH]c2ccccc2c1CC(=O)O
T/C [9]: 91 % of control
T/C [10]: 98 % of control
T/C [11]: 119 % of control

CC(O)c1cc2ccccc2n1C (stereo not drawn)
T/C [14]: 98 % of control
T/C [15]: 103 % of control
T/C (dose: 400.0 mg/kg/injection, schedule: Q01DX001 (ip), vehicle: saline with Tween-80): 101 % of control

NC(=O)c1ccn(C2OC(CO)C(O)C2O)n1 (stereo not drawn)
T/C (dose: 200.0 mg/kg/injection, schedule: Q01DX005 (ip), vehicle: other): 106 % of control
T/C (dose: 400.0 mg/kg/injection, schedule: Q01DX005 (ip), vehicle: other): 107 % of control
T/C (dose: 800.0 mg/kg/injection, schedule: Q01DX005 (ip), vehicle: other): 117 % of control

COC(=O)N1CC=CCN1C(=O)OC
T/C (dose: 100.0 mg/kg/injection, schedule: Q01DX009 (ip), vehicle: saline): 105 % of control
T/C (dose: 200.0 mg/kg/injection, schedule: Q01DX009 (ip), vehicle: saline): 108 % of control
T/C (dose: 400.0 mg/kg/injection, schedule: Q01DX009 (ip), vehicle: saline): 102 % of control

NC(N)=N/C(N)=N\c1cnc([N+](=O)[O-])s1
T/C (dose: 75.0 mg/kg/injection, schedule: Q01DX001 (ip), vehicle: saline): 96 % of control
T/C (dose: 150.0 mg/kg/injection, schedule: Q01DX001 (ip), vehicle: saline): 101 % of control
T/C (dose: 300.0 mg/kg/injection, schedule: Q01DX001 (ip), vehicle: saline): 93 % of control

O=C(CC(=O)CC(O)(C(F)(F)F)C(F)(F)F)CC(O)(C(F)(F)F)C(F)(F)F
T/C (dose: 5.0 mg/kg/injection, schedule: Q04DX003 (ip), vehicle: saline): 100 % of control
T/C (dose: 10.0 mg/kg/injection, schedule: Q04DX003 (ip), vehicle: saline): 96 % of control

CCOC(=O)/C(Cc1cc(Cl)nnc1Cl)=N\N
T/C (dose: 12.5 mg/kg/injection, schedule: Q04DX002 (ip), vehicle: saline with Tween-80): 113 % of control
T/C (dose: 25.0 mg/kg/injection, schedule: Q04DX002 (ip), vehicle: saline with Tween-80): 98 % of control
T/C (dose: 50.0 mg/kg/injection, schedule: Q04DX002 (ip), vehicle: saline with Tween-80): 87 % of control

CC(C)(C)CC(C)(C)c1ccc(OCCOc2ccc(NS(=O)(=O)c3ccc(N)c([N+](=O)[O-])c3)cc2)cc1
T/C (dose: 50.0 mg/kg/injection, schedule: Q01DX009 (ip), vehicle: Klucel (hydroxypropylcellulose) (HPC)): 101 % of control
T/C [12]: 101 % of control
T/C [13]: 98 % of control
